# Experimental data taken from patent US9682976B2, “Protein kinase C inhibitors and uses thereof” (Rigel Pharmaceuticals, Inc., priority 2012, dated 2017).
# System: PKC mediated IL-2 production
# Test: IL-2 ELISA, human primary T cell, anti CD3+CD28+
# Type: cell-based
# Conditions: Homo sapiens, T-cell, 24 h, human primary T cells stimulated with αCD3 and αCD28, 24 hours
# Summary of the method: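 IL-2 was quantified by ELISA in 24 h supernatants from primary human T cells given a 1 h compound pre-treatment at 37° C. These cells had been expanded from blood mononuclear cells on αCD3/αCD28 with IL-2, and the IL-2 was removed by washing. Stimulation used plate-bound αCD3 ([…]) plus αCD28 (5 μg/ml); the counter assay used PMA (0.5 ng/ml) with ionomycin (0.1 uM) instead.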
row,SMILES,EC50
1,"Cc1ccc(Nc2ncc(Cl)c(N[C@@H]3C[C@@H]4CCCN4C(C)(C)C3)n2)cc1C#N [Compound 154, 5-((5-chloro-4-(((7R,8aS)-5,5-dimethyloctahydroindolizin-7-yl)amino)pyrimidin-2-yl)amino)-2-methylbenzonitrile]",< 100 nM
2,"Cn1nnn(-c2cc(Nc3ncc(F)c(N[C@@H]4C[C@@H]5CCCN5C(C)(C)C4)n3)c(F)cc2OC2CCOC2=O)c1=O (stereo partly drawn) [Compound 185, 1-(5-((4-(((7R,8aS)-5,5-dimethyloctahydroindolizin-7-yl)amino)-5-fluoropyrimidin-2-yl)amino)-4-fluoro-2-((2-oxotetrahydrofuran-3-yl)oxy)phenyl)-4-methyl-1,4-dihydro-5H-tetrazol-5-one]",> 10000 nM
3,"CSc1nnnn1-c1cc(Nc2ncc(F)c(N[C@@H]3C[C@@H]4CCCN4C(C)(C)C3)n2)ccc1C [Compound 281, 5-fluoro-N4-((7R,8aS)-octahydro-5,5-dimethylindolizin-7-yl)-N2-(4-methyl-3-(5-(methylthio)-1H-tetrazol-1-yl)phenyl)pyrimidine-2,4-diamine]",< 100 nM
4,"Cc1ccc(Nc2ncc(F)c(N[C@H]3C[C@@H]4CC(F)(F)CN4C(C)(C)C3)n2)cc1C#N [Compound 44, 5-(4-((7S,8aR)-2,2-difluoro-octahydro-5,5-dimethylindolizin-7-ylamino)-5-fluoropyrimidin-2-ylamino)-2-methylbenzonitrile]",1000 to 10000 nM
5,"CC1(C)C[C@H](Nc2nc(Nc3cc(-n4cnnn4)c(C4CC4)cc3F)ncc2F)C[C@@H]2CC(F)(F)CN21 [Compound 46, N^2-(4-cyclopropyl-2-fluoro-5-(1H-tetrazol-1-yl)phenyl)-5-fluoro-N^4-((7R,8aR)-2,2-difluoro-octahydro-5,5-dimethylindolizin-7-yl)pyrimidine-2,4-diamine]",500 to 1000 nM
6,Cn1nnn(-c2cc(Nc3ncc(C#N)c(N[C@@H]4C[C@@H]5CCCN5C(C)(C)C4)n3)c(F)cc2OC2CCOC2)c1=O (stereo partly shown) [Compound 111],100 to 500 nM
7,"CC1(C)C[C@H](Nc2nc(Nc3cccc(-n4nnnc4SC(CN)CO)c3)ncc2F)C[C@@H]2CCCN21 (stereo partly drawn) [Compound 264, 2-(1-(3-(4-((7R,8aS)-octahydro-5,5-dimethylindolizin-7-ylamino)-5-fluoropyrimidin-2-ylamino)phenyl)-1H-tetrazol-5-ylthio)-3-aminopropan-1-ol]",1000 to 10000 nM
8,"CC1(C)C[C@H](Nc2nc(Nc3ccc(OC4COC4)c(C#N)c3)ncc2F)C[C@@H]2CCCN21 [Compound 179, 5-(4-((7R,8aS)-5,5-dimethyloctahydroindolizin-7-ylamino)-5-fluoropyrimidin-2-ylamino)-2-(oxetan-3-yloxy)benzonitrile]",100 to 500 nM
9,"Cn1nnn(-c2cc(Nc3ncc(F)c(N[C@@H]4C[C@@H]5C[C@@H](O)CN5C(C)(C)C4)n3)c(F)cc2C2CC2)c1=O [Compound 68, 1-(5-(4-((2R,7R,8aR)-2-hydroxy-octahydro-5,5-dimethylindolizin-7-ylamino)-5-fluoropyrimidin-2-ylamino)-2-cyclopropyl-4-fluorophenyl)-4-methyl-1H-tetrazol-5(4H)-one]",100 to 500 nM
10,"[2H]C([2H])(O)C([2H])([2H])Oc1ccc(Nc2ncc(F)c(N[C@@H]3C[C@@H]4CCCN4C(C)(C)C3)n2)cc1C#N [Compound 210, 5-((4-(((7R,8aS)-5,5-dimethyloctahydroindolizin-7-yl)amino)-5-fluoropyrimidin-2-yl)amino)-2-(2-hydroxyethoxy-1,1,2,2-d4)benzonitrile]",< 100 nM
11,"Cn1nnn(-c2cc(Nc3ncc(F)c(N[C@H]4C[C@H]5CCCN5C(C)(C)C4)n3)c(F)cc2C2CC2)c1=O [Compound 18, 1-(5-(4-((7S,8aR)-Octahydro-5,5-dimethylindolizin-7ylamino)-5-fluoropyrimidin-2-ylamino)-2-cyclopropyl-4-fluorophenyl)-4-methyl-1H-tetrazol-5(4H)-one]",500 to 1000 nM
12,"CC1(C)C[C@H](Nc2nc(Nc3ccc(OCC(O)(C(F)(F)F)C(F)(F)F)c(C#N)c3)ncc2F)C[C@@H]2CCCN21 [Compound 209, 5-((4-(((7R,8aS)-5,5-dimethyloctahydroindolizin-7-yl)amino)-5-fluoropyrimidin-2-yl)amino)-2-(3,3,3-trifluoro-2-hydroxy-2-(trifluoromethyl)propoxy)benzonitrile]",100 to 500 nM
13,"Cn1nnn(-c2cc(Nc3ncc(F)c(N[C@@H]4C[C@@H]5CCCN5C(C)(C)C4)n3)ccc2OCCO)c1=O [Compound 132, 1-(5-((4-(((7R,8aS)-5,5-dimethyloctahydroindolizin-7-yl)amino)-5-fluoropyrimidin-2-yl)amino)-2-(2-hydroxyethoxy)phenyl)-4-methyl-1,4-dihydro-5H-tetrazol-5-one]",< 100 nM
14,"CC1(C)C[C@H](Nc2nc(Nc3ccc(OCC4CCO4)c(C#N)c3)ncc2F)C[C@@H]2CCCN21 (stereo partly drawn) [Compound 176, 5-(4-((7R,8aS)-5,5-dimethyloctahydroindolizin-7-ylamino)-5-fluoropyrimidin-2-ylamino)-2-(oxetan-2-ylmethoxy)benzonitrile]",100 to 500 nM
15,"CC1(C)C[C@H](Nc2nc(Nc3ccc(NCC(CCl)C(N)=O)c(C(F)(F)F)c3)ncc2F)C[C@@H]2CCCN21 (stereo partly drawn) [Compound 325, 1-(4-(4-((7R,8aS)-octahydro-5,5-dimethylindolizin-7-ylamino)-5-fluoropyrimidin-2-ylamino)-24(2-trifluoromethylphenylamino)methyl)-3-chloropropanamide]",500 to 1000 nM
16,"CC1(C)C[C@H](Nc2nc(Nc3cc(-n4nnnc4C4CC4)ccc3F)ncc2F)C[C@@H]2CCCN21 [Compound 144, N2-(5-(5-cyclopropyl-1H-tetrazol-1-yl)-2-fluorophenyl)-N4-((7R,8aS)-5,5-dimethyloctahydroindolizin-7-yl)-5-fluoropyrimidine-2,4-diamine]",< 100 nM
17,"CC1(C)Oc2cc(Nc3ncc(F)c(N[C@@H]4C[C@@H]5CCCN5C(C)(C)C4)n3)ccc2N(CC2CC2)C1=O [Compound 105, 4-(cyclopropylmethyl)-7-((4-(((7R,8aS)-5,5-dimethyloctahydroindolizin-7-yl)amino)-5-fluoropyrimidin-2-yl)amino)-2,2-dimethyl-2H-benzo[b][1,4]oxazin-3(4H)-one]",500 to 1000 nM
18,"CC1(C)C[C@H](Nc2nc(Nc3cccc(-n4nnnc4SC4COC4)c3)ncc2F)C[C@@H]2CCCN21 [Compound 262, 5-fluoro-N4-((7R,8aS)-octahydro-5,5-dimethylindolizin-7-yl)-N2-(3-(5-(oxetan-3-ylthio)-1H-tetrazol-1-yl)phenyl)pyrimidine-2,4-diamine]",< 100 nM
19,"CC1(C)C[C@H](Nc2nc(Nc3ccc(N4CC(C(N)=O)C4)c(C(F)(F)F)c3)ncc2F)C[C@@H]2CCCN21 [Compound 324, 1-(4-(4-((7R,8aS)-octahydro-5,5-dimethylindolizin-7-ylamino)-5-fluoropyrimidin-2-ylamino)-2-(trifluoromethyl)phenyl)azetidine-3-carboxamide]",500 to 1000 nM

# Same assay, conditions: human primary T cells stimulated with αCD3 and αCD28, 24 hours
row,SMILES,EC50
1,Cn1nnn(-c2cc(Nc3ncc(F)c(N[C@@H]4CCN5C(CCC5(C)C)C4)n3)c(F)cc2C2CC2)c1=O (mixture of isomers) [Compound 25],1000 to 10000 nM
2,"CC1(C)CC(Nc2nc(Nc3ccc(O[C@@H]4CCOC4)c(C#N)c3)ncc2F)CC2CCCN21 (single isomer, unassigned) [Compound 59]",100 to 500 nM
3,"Cn1nnn(-c2cc(Nc3ncc(F)c(N[C@H]4CCN5[C@@H](CCC5(C)C)C4)n3)c(F)cc2C2CC2)c1=O (single isomer, unassigned) [Compound 37]",1000 to 10000 nM
4,"CC(C)N1CCC(Oc2ccc(Nc3ncc(F)c(N[C@@H]4C[C@H]5CCCN5C(C)(C)C4)n3)cc2OC(F)F)CC1 (single isomer, unassigned) [Compound 8, (R/S, S/R, R/R, S/S)-N^2-(4-(1-isopropylpiperidin-4-yloxy)-3-(difluoromethoxy)phenyl)-5-fluoro-N^4-(octahydro-5,5-dimethylindolizin-7-yl)pyrimidine-2,4-diamine]",500 to 1000 nM
5,"Cn1nnn(-c2cc(Nc3ncc(F)c(NC4CCN5C(CCC5(C)C)C4)n3)c(F)cc2C2CC2)c1=O (single isomer, unassigned) [Compound 35, 1-(5-(5-fluoro-4-(octahydro-3,3-dimethylindolizin-7-ylamino)pyrimidin-2-ylamino)-2-cyclopropyl-4-fluorophenyl)-4-methyl-1H-tetrazol-5(4H)-one]",1000 to 10000 nM
6,"COc1cc(Nc2ncc(F)c(N[C@@H]3C[C@H]4CCCN4C(C)(C)C3)n2)cc(-n2nnnc2C)c1 (single isomer, unassigned) [Compound 12, (R/S, S/R, R/R, S/S)-5-fluoro-N4-(octahydro-5,5-dimethylindolizin-7-yl)N2-(3-methoxy-5-(5-methyl-1H-tetrazol-1-yl)phenyl)pyrimidine-2,4-diamine]",500 to 1000 nM
7,"COc1cc(Nc2ncc(F)c(N[C@@H]3C[C@@H]4CCCN4C(C)(C)C3)n2)cc(-n2nnnc2C)c1 (single isomer, unassigned) [Compound 14, (R/S, S/R, R/R, S/S)-5-fluoro-N4-(octahydro-5,5-dimethylindolizin-7-yl)N2-(3-methoxy-5-(5-methyl-1H-tetrazol-1-yl)phenyl)pyrimidine-2,4-diamine]",< 100 nM
8,"CC(C)N1CCC(Oc2ccc(Nc3ncc(F)c(N[C@@H]4C[C@@H]5CCCN5C(C)(C)C4)n3)cc2OC(F)F)CC1 (single isomer, unassigned) [Compound 10, (R/S, S/R, R/R, S/S)-N^2-(4-(1-isopropylpiperidin-4-yloxy)-3-(difluoromethoxy)phenyl)-5-fluoro-N^4-(octahydro-5,5-dimethylindolizin-7-yl)pyrimidine-2,4-diamine]",100 to 500 nM
9,"Cn1nc2n(c1=O)-c1cc(Nc3ncc(F)c(N[C@@H]4C[C@@H]5CCCN5C(C)(C)C4)n3)ccc1OCC2(C)O (single isomer, unassigned) [Compound 294]",500 to 1000 nM
